In patent publication US11634447B2 (priority 2012, dated 2023):
Like-named read-outs stand apart in the source and are kept apart here.

Molecular target: T1, FimH-CRD (Escherichia coli, UniProt P08191)
T1 construct: The first 177 amino acids of the FimH protein are expressed as a fusion protein; thrombin tag (printed as 'fusion protein with thrombin') (cleaved yes); made in house; host or cells: bacteria (pET21b plasmid)
Test: Competitive binding assay by fluorescence polarization, assay 1 (compounds prepared by manual dilution)
Set-up: species or system E. coli
Summary of the method: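 FimH-CRD (residues 1-177, tag removed) at 60 nM competed against 5 nM Alexa 647 mannoside probe in 50 mM Tris-Cl pH 7.0, 100 mM NaCl, 1 mM EDTA, 5 mM β-mercaptoethanol, 0.05% BSA, 2.5% DMSO; 5 h, room temperature, dark. Compounds 0.4 nM-75 μM final, 12-point 3-fold, duplicate; Kd from fluorescence polarization displacement curves. Assay 1: manual dilution; assay 2: robotic dilution, plates frozen/thawed.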

T1 sequence (P08191 22-177): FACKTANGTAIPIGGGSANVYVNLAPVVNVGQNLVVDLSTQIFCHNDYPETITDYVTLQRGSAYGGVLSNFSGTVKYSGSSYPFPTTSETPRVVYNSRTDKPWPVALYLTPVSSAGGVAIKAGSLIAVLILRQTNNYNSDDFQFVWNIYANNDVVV

Compound: OC[C@H]1O[C@H](Cc2ccc(-c3ccc(C[C@H]4O[C@H](CO)[C@@H](O)[C@H](O)[C@@H]4O)cc3)cc2)[C@@H](O)[C@@H](O)[C@@H]1O [Compound 41, ((2R,3S,4R,5S,6R)-2-(Hydroxymethyl)-6-[[4-[4-[[(2R,3S,4R,5S,6R)-3,4,5-trihydroxy-6-(hydroxymethyl)tetrahydropyran-2-yl]methyl]phenyl]phenyl]methyl]tetrahydropyran-3,4,5-triol)]
- Kd (Assay 1 Kd, 5 nM Alexa 647 mannoside probe, 60 nM FimH-CRD, replicate values in one cell): < 5 nM
- Kd (read-out: Assay 1 Kd, 5 nM Alexa 647 mannoside probe, 60 nM FimH-CRD, replicate values in one cell): < 5 nM
